# Assay results as given in ChEMBL document CHEMBL1122681, “(Acylaryloxy)acetic acid diuretics. 5. [(2-Alkyl- and 2,2-disubstituted-1,3-dioxo-5-indanyl)oxy]acetic acids” (J Med Chem, 1984).
# Columns and labels:
# Pan troglodytes [1] = assay: Compound was evaluated for diuretic activity in chimpanzee measured as increase in the number of microequivalents of K+ /min at 1 mg/kg; format: functional, Urine
# Canis familiaris [2] = assay: Compound was evaluated for diuretic activity, administered orally in female mongrel dogs (5 mg/kg) measured as milliequivalents of Cl-; format: functional, Canis lupus familiaris, Urine
# Pan troglodytes [3] = assay: Compound was evaluated for diuretic activity in chimpanzee measured as increase in volume of urine at 1 mg/kg; format: functional
# Canis familiaris [4] = assay: Compound was evaluated for diuretic activity, in female mongrel dogs by measuring volume of urine, after iv administration of 5 mg/kg (control/compound treatment results) Control = 1; format: functional, Canis lupus familiaris
# Pan troglodytes [5] = assay: Compound was evaluated for diuretic activity in chimpanzee measured as clearance of […] and urate after peroral administration of 5 mg/kg; format: functional, Urine; details: route oral
# Canis familiaris [6] = assay: Compound was evaluated for diuretic activity, administered orally in female mongrel dogs (5 mg/kg) measured as milliequivalents of Na; format: functional, Canis lupus familiaris, Urine
# Pan troglodytes [7] = assay: (§1) Compound was evaluated for diuretic activity in chimpanzee measured as increase in the number of microequivalents of Na+ /min at 1 mg/kg; format: functional, Urine
# Pan troglodytes [8] = assay: Compound was evaluated for diuretic activity in chimpanzee measured as clearance of […] and urate after intra venous administration of 1 mg/kg; format: functional, Urine
# Pan troglodytes [9] = assay: Compound was evaluated for diuretic activity in chimpanzee measured as increase in the number of microequivalents of Cl- electrolyte/min at 5 mg/kg; format: functional, Urine
# Pan troglodytes [10] = assay: Compound was evaluated for diuretic activity in chimpanzee measured as increase in the number of microequivalents of Na+ /min at 5 mg/kg; format: functional, Urine
# Canis familiaris [11] = assay: Compound was evaluated for diuretic activity, administered orally in female mongrel dogs (5 mg/kg) measured as milliequivalents of K; format: functional, Canis lupus familiaris, Urine
# Pan troglodytes [12] = assay: Compound was evaluated for diuretic activity in chimpanzee measured as increase in the number of microequivalents of Cl- electrolyte/min at 1 mg/kg; format: functional, Urine
# Canis familiaris [13] = organism: Canis familiaris; assay: Volume of urine in dog; format: ADME, organism-based, Canis lupus familiaris; details: in vivo
# Canis familiaris [14] = assay: Compound was evaluated for diuretic activity, in female mongrel dogs by measuring amount of K+ in urine after iv administration of 5 mg/kg (control/compound treatment results) Control = 5; format: functional, Canis lupus familiaris
# Pan troglodytes [15] = assay: Compound was evaluated for diuretic activity in chimpanzee measured as increase in the number of microequivalents of K+ /min at 5 mg/kg; format: functional, Urine
# Canis familiaris [16] = assay: Compound was evaluated for diuretic activity, in female mongrel dogs by measuring amount of Cl- in urine after iv administration of 5 mg/kg (control/compound treatment results) Control = 6; format: functional, Canis lupus familiaris
# Pan troglodytes [17] = assay: Compound was evaluated for diuretic activity in chimpanzee measured as increase in volume of urine at 5 mg/kg; format: functional
# Canis familiaris [18] = assay: Compound was evaluated for diuretic activity, in female mongrel dogs by measuring amount of Na+ in urine after iv administration of 5 mg/kg (control/compound treatment results) Control = 37; format: functional, Canis lupus familiaris
# Rattus norvegicus [19] = assay: Compound was evaluated for diuretic activity administered orally in female rats measured as milliequivalents of Cl-x 100 / cage at 81 mg/kg; format: functional, Urine; details: route oral
# Rattus norvegicus [20] = assay: Compound was evaluated for diuretic activity administered orally in female rats measured as milliequivalents of K+x 100 / cage at 3 mg/kg; format: functional, Urine; details: route oral
# Rattus norvegicus [21] = assay: Compound was evaluated for diuretic activity administered orally in female rats measured as milliequivalents of Na+x 100 / cage at 3 mg/kg; format: functional, Urine; details: route oral
# [22] = volume of urine at 9 mg/kg; format: ADME, organism-based; parameters: dose 9 mg/kg; details: in vivo
# Pan troglodytes [23] = assay: as §1; format: functional, Urine; remark: listed apart in the source
# Canis familiaris [24] = assay: Compound was evaluated for diuretic activity, in female mongrel dogs by measuring amount of K+ in urine after iv administration of 5 mg/kg (control/compound treatment results) Control = 10; format: functional, Canis lupus familiaris
# Rattus norvegicus [25] = assay: Compound was evaluated for diuretic activity administered orally in female rats measured as milliequivalents of K+x 100 / cage at 27 mg/kg; format: functional, Urine; details: route oral
# Canis familiaris [26] = assay: Compound was evaluated for diuretic activity, in female mongrel dogs by measuring amount of Na+ in urine after iv administration of 5 mg/kg (control/compound treatment results) Control = 35; format: functional, Canis lupus familiaris
# Rattus norvegicus [27] = assay: Compound was evaluated for diuretic activity administered orally in female rats measured as milliequivalents of K+x 100 / cage at 9 mg/kg; format: functional, Urine; details: route oral
# Rattus norvegicus [28] = assay: Compound was evaluated for diuretic activity administered orally in female rats measured as milliequivalents of Cl-x 100 / cage at 3 mg/kg; format: functional, Urine; details: route oral
# Rattus norvegicus [29] = assay: Compound was evaluated for diuretic activity administered orally in female rats measured as milliequivalents of K+x 100 / cage at 81 mg/kg; format: functional, Urine; details: route oral
# Canis familiaris [30] = assay: Compound was evaluated for diuretic activity, in female mongrel dogs by measuring volume of urine, after iv administration of 5 mg/kg (control/compound treatment results) Control = 2; format: ADME, organism-based, Canis lupus familiaris; parameters: dose 5 mg/kg, route intravenous; details: dog, in vivo
# Rattus norvegicus [31] = assay: Compound was evaluated for diuretic activity administered orally in female rats measured as milliequivalents of Cl-x 100 / cage at 9 mg/kg; format: functional, Urine; details: route oral
# Rattus norvegicus [32] = assay: Compound was evaluated for diuretic activity administered orally in female rats measured as milliequivalents of Na+x 100 / cage at 27 mg/kg; format: functional, Urine; details: route oral
# Rattus norvegicus [33] = assay: Compound was evaluated for diuretic activity administered orally in female rats measured as milliequivalents of Cl-+x 100 / cage at 27 mg/kg; format: functional, Urine; details: route oral
# [34] = volume of urine at 81 mg/kg; format: ADME, organism-based; parameters: dose 81 mg/kg; details: in vivo
# Rattus norvegicus [35] = assay: Compound was evaluated for diuretic activity administered orally in female rats measured as milliequivalents of Na+x 100 / cage at 81 mg/kg; format: functional, Urine; details: route oral
# [36] = volume of urine at 27 mg/kg; format: ADME, organism-based; parameters: dose 27 mg/kg; details: in vivo
# Canis familiaris [37] = assay: Compound was evaluated for diuretic activity, in female mongrel dogs by measuring amount of Cl- in urine after iv administration of 5 mg/kg (control/compound treatment results) Control = 5; format: functional, Canis lupus familiaris
# [38] = volume of urine at 3 mg/kg; format: ADME, organism-based; parameters: dose 3 mg/kg; details: in vivo
# Rattus norvegicus [39] = assay: Compound was evaluated for diuretic activity administered orally in female rats measured as milliequivalents of Na+x 100 / cage at 9 mg/kg; format: functional, Urine; details: route oral
# Pan troglodytes [40] = assay: Compound was evaluated for diuretic activity in chimpanzee measured as clearance of […] and urate after intravenous administration of 1 mg/kg; format: functional, Urine
compound,measurement,setting,value
CCC1C(=O)c2cc(OCC(=O)O)c(C)c(C)c2C1=O (stereo not drawn),Increase,Pan troglodytes [1],41
same,Activity,Canis familiaris [2],8
same,Increase in volume,Pan troglodytes [3],1.6 mL/min
same,Activity,Canis familiaris [4],4 mL/min
same,Delta C urate / delta C insulin,Pan troglodytes [5],0.061
same,Activity,Canis familiaris [6],6
same,Increase,Pan troglodytes [7],254
same,Delta C urate / delta C insulin,Pan troglodytes [8],0.101
same,Increase,Pan troglodytes [9],244
same,Increase,Pan troglodytes [10],194
same,Activity,Canis familiaris [11],5
same,Increase,Pan troglodytes [12],314
same,Urine volume,Canis familiaris [13],553 mL
same,Activity,Canis familiaris [14],24 u equiv min-1
same,Increase,Pan troglodytes [15],30
same,Activity,Canis familiaris [16],114 u equiv min-1
same,Increase in volume,Pan troglodytes [17],1.2 mL/min
same,Activity,Canis familiaris [18],196 u equiv min-1
Cc1c(OCC(=O)O)cc2c(c1Cl)C(=O)C(C)(C1CCCC1)C2=O (stereo not drawn),Activity,Rattus norvegicus [19],86
same,Activity,Rattus norvegicus [20],21
same,Increase,Pan troglodytes [1],51
same,Increase in volume,Pan troglodytes [3],0.6 mL/min
same,Activity,Rattus norvegicus [21],19
same,Delta C urate / delta C insulin,Pan troglodytes [5],0.149
same,Urine volume,[22],27 mL
same,Increase,Pan troglodytes [23],82
same,Activity,Canis familiaris [24],41 u equiv min-1
same,Activity,Rattus norvegicus [25],22
same,Increase,Pan troglodytes [9],527
same,Increase,Pan troglodytes [10],388
same,Activity,Canis familiaris [26],132 u equiv min-1
same,Activity,Rattus norvegicus [27],24
same,Activity,Rattus norvegicus [28],17
same,Activity,Rattus norvegicus [29],36
same,Increase,Pan troglodytes [12],129
same,Urine volume,Canis familiaris [30],2 mL/min
same,Activity,Rattus norvegicus [31],30
same,Increase,Pan troglodytes [15],54
same,Activity,Rattus norvegicus [32],50
same,Increase in volume,Pan troglodytes [17],0 mL/min
same,Activity,Rattus norvegicus [33],40
same,Urine volume,[34],25 mL
same,Activity,Rattus norvegicus [35],76
same,Urine volume,[36],27 mL
same,Activity,Canis familiaris [37],48 u equiv min-1
same,Urine volume,[38],24 mL
same,Activity,Rattus norvegicus [39],41
same,Delta C urate / delta C insulin,Pan troglodytes [40],0.204
